From US7678776B2, “Inclusion complexes of butylphthalide with cyclodextrin or its derivatives, a process for their preparation and the use thereof” (Shijiazhuang Pharma. Group Zhongqi Pharmaceutical …, priority 2002, dated 2010)

System: marginal ear vein of a rabbit
Test: vascular irritation assay
Format: in vivo
Conditions: control group, administered into the ear vein for 3 days
Method: The vascular irritation assay using inclusion complex of butylphthalide with hydroxypropyl-β-cyclodextrin is provided as follows:
Eight rabbits were divided into two groups, namely, test group and control group. For the test group, 2.45 g/kg of the inclusion complex together with 40 ml of 5% glucose were instilled via the marginal ear vein of a rabbit at the rate of 1.5 ml/min. The administration was once per day and lasted for 3 days. […] The administration lasted for 3 days.

## CC(=O)O [10% acetic acid, acetic acid]
  vascular irritation (topical findings): topical hyperaemia, thickening, and exudation
